Experimental data from paper PMC7129073 (Clinical Microbiology and Infection, 2015).
≈ marks a conversion by molar mass, not a printed value.

Assays:
B. fragilis = assay: NCCLS broth microdilution, beta-lactamase positive isolates; assay type: cell-based, Bacteroides fragilis; settings: 48 hr
B. distasonis = assay: as above; assay type: cell-based, Bacteroides distasonis; settings: 48 hr
B. thetaiotaomicron = assay: as above; assay type: cell-based, Bacteroides thetaiotaomicron; settings: 48 hr
B. ovatus = assay: as above; assay type: cell-based, Bacteroides ovatus; settings: 48 hr
B. vulgatus = assay: as above; assay type: cell-based, Bacteroides vulgatus; settings: 48 hr
K. pneumoniae [1] = assay: MIC; assay type: cell-based, Klebsiella pneumoniae; settings: Klebsiella pneumoniae
S. aureus ATCC 29213 = assay: Cefoxitin Neo-Sensitabs tablet diffusion, control strain; assay type: cell-based; settings: Staphylococcus aureus, ATCC29213, read-out: zone diameter
S. aureus ATCC 25923 = assay: as above; assay type: cell-based; settings: Staphylococcus aureus, ATCC25923, read-out: zone diameter
[2] = test system: inducible Enterobacteriaceae; assay: SMART 2003, intraabdominal isolates; assay type: cell-based
Enterobacteriaceae = assay: SMART 2003 Europe, microdilution; assay type: cell-based; settings: 1948 isolates
E. coli [3] = assay: SMART 2003 Europe, microdilution; assay type: cell-based, Escherichia coli; settings: 1106 isolates
Klebsiella = assay: SMART 2003 Europe, microdilution; assay type: cell-based, Klebsiella spp.; settings: 341 isolates
[4] = test system: viridans group streptococci (VGS); assay: MIC; assay type: cell-based
Shigella spp. = assay: Disk diffusion, stool isolates Tehran; assay type: cell-based; settings: 96 isolates
E. coli [5] = assay: Resistance of UTI isolates of renal transplant recipients; assay type: cell-based, Escherichia coli; settings: 75 isolates
N.gonorrhoeae = assay: microbe, parasite or virus in culture; assay type: cell-based; settings: Neisseria gonorrhoeae
Nocardia spp. = assay: E-test on Mueller Hinton agar, 81 clinical isolates; assay type: cell-based; settings: Nocardia
Acinetobacter = assay: Disk diffusion; assay type: cell-based; settings: 37 isolates selected as resistant to beta-lactams
S. pneumoniae = assay: PROTEKT Italy, NCCLS microdilution; assay type: cell-based, Streptococcus pneumoniae
N. farcinica strain = assay: E-test on Mueller-Hinton agar; assay type: cell-based; settings: Nocardia farcinica
Pseudomonas spp. = assay: MIC; assay type: cell-based
E. coli [6] = assay: E-test susceptibility; assay type: cell-based, Escherichia coli
K. pneumoniae [7] = assay: E-test susceptibility; assay type: cell-based, Klebsiella pneumoniae
K. oxytoca = assay: E-test susceptibility; assay type: cell-based, Klebsiella oxytoca
Gram-negative rods = assay: Microscan MIC, blood culture isolates; assay type: cell-based
Pseudomonas aeruginosa = assay: MIC, strains from cystic fibrosis patients; settings: by MIC

SMILES: C[C@]1(Cn2ccnn2)[C@H](C(=O)O)N2C(=O)C[C@H]2S1(=O)=O [Tz, Tazobactam]
- isolates inhibited at 8 mg/L (B. fragilis): 97%
- isolates inhibited at 16 mg/L (B. fragilis): 98%
- isolates inhibited at =/< 4 mg/L (B. fragilis): 86%
- isolates inhibited at 8 mg/L (B. distasonis): 50%
- isolates inhibited at 16 mg/L (B. distasonis): 100%
- isolates inhibited at =/< 4 mg/L (B. distasonis): 25%
- isolates inhibited at 16 mg/L (B. thetaiotaomicron): 100%
- isolates inhibited at =/< 4 mg/L (B. thetaiotaomicron): 42%
- isolates inhibited at 8 mg/L (B. ovatus): 56%
- isolates inhibited at 16 mg/L (B. ovatus): 86%
- isolates inhibited at =/< 4 mg/L (B. ovatus): 23%
- isolates inhibited at 8 mg/L (B. vulgatus): 83%
- isolates inhibited at 16 mg/L (B. vulgatus): 100%
- isolates inhibited at =/< 4 mg/L (B. vulgatus): 50%

SMILES: CO[C@@]1(NC(=O)Cc2cccs2)C(=O)N2C(C(=O)O)=C(COC(N)=O)CS[C@@H]21 [cefoxitin]
- MIC (K. pneumoniae [1]): > 64 mg/L
- zone of inhibition at 10 µg/disc (S. aureus ATCC 29213): 21 to 23 mm
- zone of inhibition at 30 µg/disc (S. aureus ATCC 29213): 27 to 29 mm
- zone of inhibition at 60 µg/disc (S. aureus ATCC 29213): 29 to 33 mm
- zone of inhibition at 10 µg/disc (S. aureus ATCC 25923): 22 to 23 mm
- zone of inhibition at 30 µg/disc (S. aureus ATCC 25923): 27 to 29 mm
- zone of inhibition at 60 µg/disc (S. aureus ATCC 25923): 32 to 33 mm
- % susceptible ([2]; A/P (N = 200)): 27%
- % susceptible ([2]; EU (N = 354)): 29%
- % susceptible ([2]; LA (N=113)): 30%
- % susceptible ([2]; NA (N = 163)): 23%
- per cent susceptible (Enterobacteriaceae): 82%
- per cent susceptible (E. coli [3]): 94%
- per cent susceptible (Klebsiella): 92%

SMILES: CO/N=C(\C(=O)N[C@@H]1C(=O)N2C(C(=O)O)=C(CSc3nc(=O)c(=O)[nH]n3C)CS[C@H]12)c1csc(N)n1 [ceftriaxone]
- MIC50 [4]: 0.06 mg/L (≈ 0.108 µM)
- MIC90 [4]: 0.5 mg/L (≈ 0.902 µM)
- sensitive (Shigella spp.): 100%
- rate of resistance (E. coli [5]): 1%
- MIC (N.gonorrhoeae; strain 76mu6): 0.12 mg/L (≈ 0.216 µM)
- MIC (N.gonorrhoeae; strain 92mu6): 0.015 mg/L (≈ 0.027 µM)
- MIC (N.gonorrhoeae; strain 92mu13): 0.008 mg/L (≈ 0.0144 µM)
- MIC50 (Nocardia spp.): 8 mg/L (≈ 14.4 µM)
- MIC90 (Nocardia spp.): > 256 mg/L
- resistant isolates (Acinetobacter): 75.7%
- % susceptible ([2]; A/P (N = 200)): 60%
- % susceptible ([2]; EU (N = 354)): 79%
- % susceptible ([2]; LA (N=113)): 71%
- % susceptible ([2]; NA (N = 163)): 75%
- per cent susceptible (Enterobacteriaceae): 91%
- per cent susceptible (Klebsiella): 89%
- susceptible (S. pneumoniae; year 1: 2002): 88.9%
- susceptible (S. pneumoniae; year 2: 2003): 93.7%

SMILES: C[C@@H](O)[C@H]1C(=O)N2C(C(=O)O)=C(S[C@@H]3CN[C@H](C(=O)N(C)C)C3)[C@H](C)[C@H]12 [meropenem]
- MIC (K. pneumoniae [1]): 4 to 16 mg/L (≈ 10.4 to 41.7 µM)
- MIC (N. farcinica strain): > 32 mg/L
- resistant isolates (Acinetobacter): 0.0%
- susceptible strains (Pseudomonas spp.): 98%
- % susceptible ([2]; A/P (N = 200)): 100%
- % susceptible ([2]; EU (N = 354)): 99%
- % susceptible ([2]; LA (N=113)): 98%
- % susceptible ([2]; NA (N = 163)): 99%
- per cent susceptible (Enterobacteriaceae): >99%
- per cent susceptible (E. coli [3]): >99%
- per cent susceptible (Klebsiella): 99%
- Susceptible isolates (E. coli [6]; ICU, SRGA breakpoints, tigecycline tentative S ≤2 μg/ml): 100%
- Susceptible isolates (E. coli [6]; non ICU): 99%
- Susceptible isolates (K. pneumoniae [7]; ICU): 100/100%
- Susceptible isolates (K. pneumoniae [7]; non ICU): 100/100%
- Susceptible isolates (K. oxytoca; ICU): 100/100%
- Susceptible isolates (K. oxytoca; non ICU): 100/100%
- susceptible strains (n/N) (Gram-negative rods): 16/16
- Susceptible isolates (Pseudomonas aeruginosa): 96%
